Assay: xn = mol fraction of the nth substance listed
Settings: 100 kPa

CC[n+]1ccn(C)c1.F[B-](F)(F)F + CCC(=O)O
speed of sound (303.15 K, x1 = 1): 1618 m/s | speed of sound (313.15 K, x1 = 1): 1595 m/s | speed of sound (333.15 K, x1 = 1): 1550 m/s

CCC(=O)O + CC[n+]1ccn(C)c1.F[B-](F)(F)F
speed of sound (293.15 K, x2 = 0): 1171 m/s | speed of sound (293.15 K, x2 = 0.0497): 1173 m/s | speed of sound (293.15 K, x2 = 0.0888): 1213 m/s | speed of sound (293.15 K, x2 = 0.2982): 1463 m/s | speed of sound (293.15 K, x2 = 0.3836): 1496 m/s | speed of sound (293.15 K, x2 = 0.78): 1593 m/s | speed of sound (293.15 K, x2 = 0.8899): 1617 m/s | speed of sound (293.15 K, x2 = 0.9453): 1629 m/s | speed of sound (303.15 K, x2 = 0): 1134 m/s | speed of sound (303.15 K, x2 = 0.0497): 1145 m/s | speed of sound (303.15 K, x2 = 0.0888): 1187 m/s | speed of sound (303.15 K, x2 = 0.1876): 1332 m/s | speed of sound (303.15 K, x2 = 0.2982): 1442 m/s | speed of sound (303.15 K, x2 = 0.4908): 1500 m/s | speed of sound (303.15 K, x2 = 0.5907): 1521 m/s | speed of sound (303.15 K, x2 = 0.6891): 1548 m/s | speed of sound (303.15 K, x2 = 0.78): 1572 m/s | speed of sound (303.15 K, x2 = 0.8899): 1593 m/s | speed of sound (303.15 K, x2 = 0.9453): 1607 m/s | speed of sound (313.15 K, x2 = 0.0497): 1111 m/s | speed of sound (313.15 K, x2 = 0.0888): 1160 m/s | speed of sound (313.15 K, x2 = 0.1876): 1313 m/s | speed of sound (313.15 K, x2 = 0.3836): 1456 m/s | speed of sound (313.15 K, x2 = 0.5907): 1496 m/s | speed of sound (313.15 K, x2 = 0.6891): 1524 m/s | speed of sound (313.15 K, x2 = 0.78): 1549 m/s | speed of sound (313.15 K, x2 = 0.8899): 1571 m/s | speed of sound (313.15 K, x2 = 0.9453): 1584 m/s | speed of sound (323.15 K, x2 = 0): 1060 m/s | speed of sound (323.15 K, x2 = 0.0497): 1080 m/s | speed of sound (323.15 K, x2 = 0.0888): 1130 m/s | speed of sound (323.15 K, x2 = 0.1876): 1291 m/s | speed of sound (323.15 K, x2 = 0.2982): 1396 m/s | speed of sound (323.15 K, x2 = 0.4908): 1457 m/s | speed of sound (323.15 K, x2 = 0.6891): 1501 m/s | speed of sound (323.15 K, x2 = 0.78): 1525 m/s | speed of sound (333.15 K, x2 = 0): 1025 m/s | speed of sound (333.15 K, x2 = 0.0497): 1054 m/s | speed of sound (333.15 K, x2 = 0.0888): 1105 m/s | speed of sound (333.15 K, x2 = 0.1876): 1270 m/s | speed of sound (333.15 K, x2 = 0.2982): 1376 m/s | speed of sound (333.15 K, x2 = 0.3836): 1415 m/s | speed of sound (333.15 K, x2 = 0.5907): 1463 m/s | speed of sound (333.15 K, x2 = 0.6891): 1480 m/s | speed of sound (333.15 K, x2 = 0.78): 1506 m/s | speed of sound (333.15 K, x2 = 0.8899): 1525 m/s
